Test: mn = molality of the nth substance listed, in mol/kg
Conditions: 101.33 kPa, Liquid, Vibrating tube method

CCCCCCCCCC[N+](C)(C)C.[Br-] [N,N,N-trimethyl-1-decanaminium bromide] + O
mass density [kg/m3]
Conditions	m1 = 0.01879	m1 = 0.02836	m1 = 0.04784	m1 = 0.05741	m1 = 0.06268	m1 = 0.0767	m1 = 0.08783	m1 = 0.09727	m1 = 0.1206	m1 = 0.1383
293.15 K	998.685	998.921	999.399	999.635	999.765	1000.05	1000.28	1000.47	1000.86	1001.23
298.15 K	997.496	997.716	998.157	998.379	998.511	998.788	998.987	999.17	999.597	999.91
303.15 K	996.082	996.312	996.748	996.949	997.055	997.334	997.534	997.707	998.105	998.375

CCCCCCCCCCCCCCCC[N+](C)(C)C.[Br-] [N,N,N-trimethyl-1-hexadecanaminium bromide] + O
mass density [kg/m3]
Conditions	293.15 K	298.15 K	303.15 K
m1 = 0.00082	998.23	997.052	995.673
m1 = 0.00093	998.234	997.055	995.669
m1 = 0.00104	998.238	997.058	995.669
m1 = 0.00205	998.239	997.06	995.666
m1 = 0.00309	998.245	997.062	995.67
m1 = 0.00411	998.243	997.065	995.678
m1 = 0.00625	998.254	997.073	995.681
m1 = 0.00726	998.258	997.076	995.678
m1 = 0.00801	998.255	997.076	995.687
m1 = 0.00931	998.264	997.078	995.679
m1 = 0.01038	998.274	997.082	995.679
m1 = 0.01139	998.276	997.089	995.693
m1 = 0.01252	998.279	997.093	995.676
m1 = 0.01454	998.293	997.098	995.699
m1 = 0.01561	998.296	997.105	995.676

CCCCCCCCCCCC[N+](C)(C)C.[Br-] [dodecyltrimethylammonium bromide] + O
mass density [kg/m3]
Conditions	293.15 K	298.15 K	303.15 K
m1 = 0.00799	998.38	997.201	995.799
m1 = 0.00998	998.422	997.244	995.839
m1 = 0.01168	998.455	997.278	995.868
m1 = 0.01448	998.514	997.332	995.921
m1 = 0.01695	998.566	997.376	995.96
m1 = 0.01883	998.601	997.406	995.987
m1 = 0.02825	998.739	997.528	996.106
m1 = 0.04703	998.998	997.783	996.34
m1 = 0.09497	999.663	998.401	996.928
m1 = 0.1963	1001.05	999.701	998.119
m1 = 0.301	1002.39	1000.96	999.316

CCCCCC[N+](C)(C)C.[Br-] [hexyltrimethylammonium bromide] + O
mass density [kg/m3]
Conditions	293.15 K	298.15 K	303.15 K
m1 = 0.04932	999.719	998.528	997.065
m1 = 0.07746	1000.55	999.34	997.873
m1 = 0.08812	1000.88	999.654	998.174
m1 = 0.1186	1001.76	1000.52	999.049
m1 = 0.1774	1003.49	1002.19	1000.78
m1 = 0.1855	1003.72	1002.41	1000.97
m1 = 0.2757	1006.26	1004.93	1003.53
m1 = 0.3712	1008.99	1007.66	1006.15
m1 = 0.4703	1011.8	1010.34	1008.8
m1 = 0.5274	1013.14	1011.76	1010.3
m1 = 0.5803	1014.75	1013.13	1011.67
m1 = 0.636	1016.19	1014.59	1013.12

CCCCCCCC[N+](C)(C)C.[Br-] [octyl trimethyl ammonium bromide] + O
mass density [kg/m3]
Conditions	m1 = 0.04535	m1 = 0.09122	m1 = 0.1223	m1 = 0.1444	m1 = 0.1759	m1 = 0.1958	m1 = 0.2338	m1 = 0.2621	m1 = 0.2773	m1 = 0.3003
293.15 K	999.46	1000.72	1001.54	1002.14	1002.97	1003.52	1004.58	1005.29	1005.65	1006.33
298.15 K	998.261	999.486	1000.3	1000.84	1001.75	1002.13	1003.15	1003.84	1004.24	1004.76
303.15 K	996.848	998.045	998.815	999.391	1000.2	1000.69	1001.63	1002.32	1002.69	1003.25

CCCCCCCCCCCCCC[N+](C)(C)C.[Br-] [tetradecyltrimethylammonium bromide] + O
mass density [kg/m3]
Conditions	293.15 K	298.15 K	303.15 K
m1 = 0.00291	998.259	997.091	995.687
m1 = 0.00325	998.265	997.097	995.692
m1 = 0.00379	998.273	997.103	995.706
m1 = 0.00393	998.275	997.105	995.704
m1 = 0.0049	998.286	997.115	995.708
m1 = 0.0065	998.302	997.127	995.727
m1 = 0.00821	998.32	997.144	995.739
m1 = 0.01087	998.344	997.164	995.749
m1 = 0.04969	998.72	997.499	996.055
m1 = 0.09742	999.176	997.906	996.41
m1 = 0.1468	999.632	998.322	996.79
m1 = 0.1955	1000.08	998.719	997.144
m1 = 0.3023	1001	999.537	997.713
